Data set [1] has as its system JNK1 mRNA. Kind of data set: Northern assay, JNK1 mRNA expression in A549 cells. To be noted: for inhibition of JNK1 mRNA expression: 400 nM, Northern assay, Table 5; for RNA % Inhibition: JNK1 mRNA. The data set is classed as cell-based, human.
For data set [2], the system named is JNK2 mRNA. Kind of data set: Northern assay, JNK2 mRNA expression in A549 cells. To be noted: for dose- and sequence-dependent response on JNK2 mRNA levels: A549 cells, 50, 100, 200 and 400 nM; for inhibition of JNK2 mRNA expression: 400 nM, Northern assay, Table 12. The data set is classed as cell-based, human. Here is the method:
(§1) In order to evaluate the activity of potential JNK-modulating oligonucleotides, human lung carcinoma cell line A549 (American Type Culture Collection, 10801 University Boulevard, Manassas, Va. 20110-2209, No. ATCC CCL-185) cells or other cell lines as indicated in the Examples, were grown and treated with oligonucleotides or control solutions as detailed below. After harvesting, cellular extracts were prepared and examined for specific JNK mRNA levels or JNK protein levels (i.e., Northern or Western assays, respectively). In all cases, “% expression” refers to the amount of JNK-specific signal in an oligonucleotide-treated cell relative to an untreated cell (or a cell treated with a control solution that lacks oligonucleotide), and “% inhibition” is calculated as
100%−%Expression=%Inhibition.
The mRNA expression of each JNK protein was determined by using a nucleic acid probe specifically hybridizable thereto. Nucleic acid probes specific for JNK1, JNK2 and JNK3 are described in Examples 3, 4 and 5, respectively. The probes were radiolabelled by means well known in the art (see, e.g., Short Protocols in Molecular Biology, 2nd Ed., Ausubel et al., Eds., John Wiley & Sons, New York, 1992, pages 3-11 to 2-3-44 and 4-17 to 4-18; Ruth, Chapter 6 In: Methods in Molecular Biology, Vol. 26: Protocols for Oligonucleotide Conjugates, Agrawal, ed., Humana Press Inc., Totowa, N.J., 1994, pages 167-185; and Chapter 10 In: Molecular Cloning: A Laboratory Manual, 2nd Ed., Sambrook et al., Eds., pages 10.1-10.70). The blots were stripped and reprobed with a ^32P-labeled glyceraldehyde 3-phosphate dehydrogenase (G3PDH) probe (Clontech Laboratories, Inc., Palo Alto, Calif.) in order to confirm equal loading of RNA and to allow the levels of JNK transcripts to be normalized with regard to the G3PDH signals.
A549 cells were grown in T-75 flasks until 80-90% confluent. At this time, the cells were washed twice with 10 mL of media (DMEM), followed by the addition of 5 mL of DMEM containing 20 μg/mL of LIPOFECTIN™ (i.e., 1:1 (w/w) DOTMA/DOPE, Life Technologies, Gaithersburg, Md.; DOTMA=N-[1-(2,3-dioleyoxy)propyl]-N,N,N-trimethylammonium chloride; DOPE=dioleoyl phosphatidylethanolamine). The oligonucleotides were added from a 10 μM stock solution to a final concentration of 400 nM, and the two solutions were mixed by swirling the flasks. As a control, cells were treated with LIPOFECTIN™ without oligonucleotide under the same conditions and for the same times as the oligonucleotide-treated samples. After 4 hours at 37° C., the medium was replaced with fresh DMEM containing 10% serum. The cells were allowed to recover for 18 hours. Total cellular RNA was then extracted in guanidinium, subject to gel electrophoresis and transferred to a filter according to techniques known in the art (see, e.g., Chapter 7 In: Molecular Cloning: A Laboratory Manual, 2nd Ed., Sambrook et al., Eds., pages 7.1-7.87, and Short Protocols in Molecular Biology, 2nd Ed., Ausubel et al., Eds., John Wiley & Sons, New York, 1992, pages 2-24 to 2-30 and 4-14 to 4-29). Filters were typically hybridized overnight to a probe specific for the particular JNK gene of interest in hybridization buffer (25 mM KPO4, pH 7.4; 5×SSC; 5× Denhardt's solution, 100 μg/ml Salmon sperm DNA and 50% formamide) (Alahari et al., Nucl. Acids Res., 1993, 21, 4079). This was followed by two washes with 1×SSC, 0.1% SDS and two washes with 0.25×SSC, 0.1% SDS. Hybridizing bands were visualized by exposure to X-OMAT AR film and quantitated using a PHOSPHORIMAGER™ essentially according to the manufacturer's instructions (Molecular Dynamics, Sunnyvale, Calif.).
In initial screenings of a set of oligonucleotides derived from the JNK2 sequence (Table 9) for biological activity, a cDNA clone of JNK2 (Kallunki et al., Genes & Development, 1994, 8, 2996) was radiolabeled and used as a JNK2-specific probe in Northern blots. […]

The subject of data set [3] is HUVEC. Kind of data set: Apoptosis in HUVEC, percent hypodiploid cells by flow cytometry. The following applies: HUVEC treated with JNK2 oligonucleotide plus the agent. The data set is classed as cell-based, human. Background: Flow cytometry measures light scatter and fluorescence of single cells or particles in a stream.
For data set [4], the system named is MDA-MB-231 tumors. Kind of data set: MDA-MB-231 human tumor xenograft in nude mice. Type of data set: in vivo. To be noted: 25 mg/kg intravenous once daily; for tumor growth compared to the saline control: MDA-MB-231 tumors; for Mean Tumor Volume (cm^3): nude mice. From the text: Approximately 5×10^6 breast adenocarcinoma cells (cell line MDA-MB-231; American Type Culture Collection, 10801 University Boulevard, Manassas, Va. 20110-2209, No. ATCC HTB-26) were implanted subcutaneously in the right inner thigh of nude mice (n=6 for each of three sets of mice). Oligonucleotides ISIS 15346 (JNK1, SEQ ID NO:16) and 15353 (JNK2, SEQ ID NO:31) were suspended in saline and administered once daily to two sets of mice on the first day the tumor volume was about 100 mm^3. A saline-only (0.9% NaCl) solution was given to a third set of animals as a control. Oligonucleotides were given by intravenous injection at a dosage of 25 mg/kg. Tumor size was measured and tumor volume was calculated on days 12, 19, 26 and 33 following tumor cell inoculation.
(In general: In xenograft studies the graft and the host belong to different species.)

Data set [5] deals with JNK1 protein. Kind of data set: Western assay, JNK1 protein levels in A549 cells. The data set is classed as cell-based, human. The following applies: t = 72 h. Here is the method: as §1
A549 cells were grown and treated with oligonucleotides as described above. […] The amount of each JNK protein was determined by using a primary antibody that specifically recognizes the appropriate JNK protein. […]
In order to assess the effect of oligonucleotides targeted to JNK1 mRNAs on JNK1 protein levels, Western assays were performed essentially as described above in Example 2, with the following exception(s) and/or modification(s). […] The samples from t=48 h and t=72 h were analyzed using the Northern and Western assays described above.

Data set [6] relates to JNK activity. Kind of data set: TNFa-induced JNK activity in HUVEC (GST-c-Jun phosphorylation). Type of data set: cell-based, human. The following applies: 100 nM, 5 ng/ml TNFa 15 minutes, compared to a control oligonucleotide.

Strand notation (5' to 3'): a small letter for the sugar, then the base; units joined by * are phosphorothioate-linked, units joined directly phosphodiester-linked; [ ] holds rarer units or linkages, { } end groups; capitals alone tell only the bases. Where a SMILES comes first, the peptide text is derived from it. The star is where a group is joined. e = 2'-O-(2-methoxyethyl) (MOE); [5mC] = 5-methylcytosine; Cbz = O=C(OCc1ccccc1)*; d = 2'-deoxy (DNA); CH2F = FC* Where only a bound is given, the exact number is not on record here.

As to “CTC-TCT-GTA-GGC-CCG-CTT-GG (antisense dC*dT*dC*dT*dC*dT*dG*dT*dA*dG*dG*dC*dC*dC*dG*dC*dT*dT*dG*dG) [ISIS 12539, human JNK1 antisense, fully P=S and fully 2′-deoxy]”, the “dose- and sequence-dependent response on JNK1 mRNA levels” value in data set [1] (A549 cells, 50, 100, 200 and 400 nM) is “dependent on dose in an approximately linear fashion”. For the same compound, the “% Inhibition” value in data set [1] (JNK1 mRNA time course, 48 h) is “greater than or equal to 80%”. In data set [2], the “dose- and sequence-dependent response on JNK2 mRNA levels” value is “dependent on dose in an approximately linear fashion”.

Regarding “G^ST^SG^SC^SG^SC^SG^SC^SG^SA^SG^SC^SC^SC^SG^SA^SA^SA^ST^SC (GTGCGCGCGAGCCCGAAATC; DNA, all phosphorothioate, methylation of C not given here) [ISIS 14319, 12560 scrambled control, 2′-deoxy-phosphorothioate, reference compound]”, the “dose- and sequence-dependent response on JNK2 mRNA levels” value in data set [2] is on record as “neither of the control oligonucleotides effect any consistent response”.

Consider “12567 (antisense dG*dG*dT*dC*dC*dC*dG*dT*dC*dG*dA*dG*dG*dC*dA*dT*dC*dA*dA*dG) [compound 12567]”, for which, in data set [2] (JNK2 mRNA, A549 cells, 400 nM oligonucleotide, relative to control), the “% EXPRESSION” value amounted to 18%.

Turning to `COC(=O)C[C@H](NC(=O)[C@H](C)NC(=O)[C@@H](NC(=O)OCc1ccccc1)C(C)C)C(=O)CF` [z-FAD.fmk, z-VAD.fmk] (Cbz-Val-Ala-Asp(OMe)-CH2F), the “effect on JNK2 oligonucleotide-induced cell death (apoptosis)” value in data set [3] is “decreased”.

With “15353 (antisense eG*eT*e[5mC]*e[5mC]*eG*dG*dG*dC*dC*dA*dG*dG*dC*dC*eA*eA*eA*eG*eT*e[5mC]) [compound 15353]”, the “tumor growth compared to the saline control” value in data set [4] is given as “inhibited tumor growth compared to the saline control”. Also, the “inhibition of JNK2 mRNA expression” value in data set [2] is listed as “approximately 80%”.

Regarding “15354 (antisense eGeTe[5mC]e[5mC]eG*dG*dG*dC*dC*dA*dG*dG*dC*dC*eAeAeAeGeTe[5mC]) [compound 15354]”, in data set [2], the “inhibition of JNK2 mRNA expression” value is on record as “approximately 80%”.

On to `C[C@@H]1C[C@@H]([C@H](O)CC2CC(=O)NC(=O)C2)C(=O)[C@@H](C)C1` [cyclohexamide], for which the “effect on JNK2 oligonucleotide-induced cell death (apoptosis)” value in data set [3] is listed as “had no effect on apoptosis”.

For “15347 (antisense CTCTCTGTAGGCCCGCTTGG; gapmer, 2'-MOE P=O wings, P=S deoxy core, chemistry not fully specified) [compound 15347]”, the “Protein % Inhibition” value in data set [5] amounted to 71.6%. Besides, the “inhibition of JNK1 mRNA expression” value in data set [1] is listed as “at least 88%”. For the same compound, the “RNA % Inhibition” value in data set [1] (t = 48 h, 300 nM for initial 20 hours then 200 nM for 4 hours) was over 70%; in data set [1] (t = 72 h) it was over 70%.

Consider “G^SA^SC^ST^ST^ST^SG^SG^SC^SC^ST^SG^SG^SC^SC^SC^SG^SG^SA^SC (GACTTTGGCCTGGCCCGGAC; DNA, all phosphorothioate, methylation of C not given here) [ISIS 14318, 12560 sense control, 2′-deoxy-phosphorothioate, reference compound]”, for which the “dose- and sequence-dependent response on JNK2 mRNA levels” value in data set [2] is listed as “neither of the control oligonucleotides effect any consistent response”.

For the compound “C^sT^sC^sT^sC^sT^sG^sT^sA^sG^sG^sC^sC^sC^sG^sC^sT^sT^sG^sG (antisense CTCTCTGTAGGCCCGCTTGG; all phosphorothioate, sugars by position and methylation of C not given here) [ISIS 15346, JNK1 gapmer: P=S, 2′-MOE wings; P=S, 2′-deoxy core]”, in data set [6], the “inhibition of TNFa-induced JNK activity” value is recorded as “approximately 70%”. The “Mean Tumor Volume (cm^3)” value is reported as 0.122 cm^3 in data set [4] (Day 12 following tumor cell inoculation), 0.255 cm^3 in data set [4] (Day 19), 0.400 cm^3 in data set [4] (Day 26) and 0.638 cm^3 in data set [4] (Day 33).

As to “15346 (antisense CTCTCTGTAGGCCCGCTTGG; gapmer, 2'-MOE wings, phosphorothioate, chemistry not fully specified) [compound 15346]”, the “Protein % Inhibition” value in data set [5] is reported as 74.3%. The “inhibition of JNK1 mRNA expression” value in data set [1] is reported as “at least 88%”. Further, in data set [4], the “tumor growth compared to the saline control” value is “inhibited tumor growth compared to the saline control”.

(Values after US6809193B2, “Antisense oligonucleotide compositions and methods for the modulation of JNK proteins” (ISIS Pharmaceuticals, Inc., priority 1997, dated 2004).)
